Results: ChEMBL document CHEMBL3045150, “Synthesis and structureactivity relationship studies on novel 8-amino-3-[2-(4-fluorophenoxy)ethyl]-1,3-diazaspiro[4.5]decane-2,4-dione derivatives as anticonvulsant agents” (Med Chem Res, 2013)

Assays:
Mus musculus [1] = assay: Anticonvulsant activity in albino Mus musculus (mouse) assessed as protection against maximal electric shock-induced seizures at 100 mg/kg, ip administered 30 min prior to maximal electric shock-challenge measured up to 4 hr relative to control; format: functional; conditions: route intraperitoneal
Mus musculus [2] = assay: Neurotoxicity in albino Mus musculus (mouse) assessed as motor impairment at 100 mg/kg, po measured at 2 hr by rotarod test; format: toxicity, organism-based; set-up: dose 100 mg/kg, route oral; conditions: in vivo
Mus musculus [3] = assay: Neurotoxicity in albino Mus musculus (mouse) assessed as motor impairment at 100 mg/kg, po measured at 4 hr by rotarod test; format: toxicity, organism-based; set-up: dose 100 mg/kg, route oral; conditions: in vivo

Cc1ccc(C(=O)NC2CCC3(CC2)NC(=O)N(CCOc2ccc(F)cc2)C3=O)cc1 (stereo not given)
Activity (Mus musculus [1]): 79.58%
Activity (Mus musculus [2]): Non-toxic
Activity (Mus musculus [3]): Non-toxic

O=C(NC1CCC2(CC1)NC(=O)N(CCOc1ccc(F)cc1)C2=O)OCc1ccccc1Cl (stereo not given)
Activity (Mus musculus [1]): 48.82%
Activity (Mus musculus [2]): Non-toxic
Activity (Mus musculus [3]): Non-toxic

O=C(NC1CCC2(CC1)NC(=O)N(CCOc1ccc(F)cc1)C2=O)c1cccc(Cl)c1 (stereo not given)
Activity (Mus musculus [1]): 58.61%
Activity (Mus musculus [2]): Toxic
Activity (Mus musculus [3]): Toxic

O=C(NC1CCC2(CC1)NC(=O)N(CCOc1ccc(F)cc1)C2=O)c1ccccc1C(F)(F)F (stereo not given)
Activity (Mus musculus [1]): 79.32%
Activity (Mus musculus [2]): Non-toxic
Activity (Mus musculus [3]): Non-toxic

Cc1cc(C)cc(S(=O)(=O)NC2CCC3(CC2)NC(=O)N(CCOc2ccc(F)cc2)C3=O)c1 (stereo not given)
Activity (Mus musculus [1]): 43.12%
Activity (Mus musculus [2]): Non-toxic
Activity (Mus musculus [3]): Non-toxic

O=C(Cc1ccccc1)NC1CCC2(CC1)NC(=O)N(CCOc1ccc(F)cc1)C2=O (stereo not given)
Activity (Mus musculus [1]): 47.21%
Activity (Mus musculus [2]): Non-toxic
Activity (Mus musculus [3]): Non-toxic

Cc1cc(F)ccc1S(=O)(=O)NC1CCC2(CC1)NC(=O)N(CCOc1ccc(F)cc1)C2=O (stereo not given)
Activity (Mus musculus [1]): 3.25%
Activity (Mus musculus [2]): Non-toxic
Activity (Mus musculus [3]): Non-toxic

O=C(NC1CCC2(CC1)NC(=O)N(CCOc1ccc(F)cc1)C2=O)c1ccccc1 (stereo not given)
Activity (Mus musculus [1]): 55.78%
Activity (Mus musculus [2]): Non-toxic
Activity (Mus musculus [3]): Non-toxic

Cc1cccc(C(=O)NC2CCC3(CC2)NC(=O)N(CCOc2ccc(F)cc2)C3=O)c1 (stereo not given)
Activity (Mus musculus [1]): 78.62%
Activity (Mus musculus [2]): Non-toxic
Activity (Mus musculus [3]): Non-toxic

Cc1ccc(CS(=O)(=O)NC2CCC3(CC2)NC(=O)N(CCOc2ccc(F)cc2)C3=O)cc1 (stereo not given)
Activity (Mus musculus [1]): 12.6%
Activity (Mus musculus [2]): Toxic
Activity (Mus musculus [3]): Toxic

Cc1ccc(S(=O)(=O)NC2CCC3(CC2)NC(=O)N(CCOc2ccc(F)cc2)C3=O)cc1 (stereo not given)
Activity (Mus musculus [1]): 1.14%
Activity (Mus musculus [2]): Non-toxic
Activity (Mus musculus [3]): Non-toxic

COc1ccc(S(=O)(=O)NC2CCC3(CC2)NC(=O)N(CCOc2ccc(F)cc2)C3=O)cc1 (stereo not given)
Activity (Mus musculus [1]): 9.23%
Activity (Mus musculus [2]): Non-toxic
Activity (Mus musculus [3]): Non-toxic

O=C(NC1CCC2(CC1)NC(=O)N(CCOc1ccc(F)cc1)C2=O)c1ccc(Cl)cc1 (stereo not given)
Activity (Mus musculus [1]): 49.83%
Activity (Mus musculus [2]): Toxic
Activity (Mus musculus [3]): Toxic

O=C1NC2(CCC(NS(=O)(=O)c3cccc(Br)c3)CC2)C(=O)N1CCOc1ccc(F)cc1 (stereo not given)
Activity (Mus musculus [1]): 7.41%
Activity (Mus musculus [2]): Non-toxic
Activity (Mus musculus [3]): Non-toxic

Cc1ccc(S(=O)(=O)NC2CCC3(CC2)NC(=O)N(CCOc2ccc(F)cc2)C3=O)cc1C (stereo not given)
Activity (Mus musculus [1]): 42.61%
Activity (Mus musculus [2]): Non-toxic
Activity (Mus musculus [3]): Non-toxic

Cc1ccccc1S(=O)(=O)NC1CCC2(CC1)NC(=O)N(CCOc1ccc(F)cc1)C2=O (stereo not given)
Activity (Mus musculus [1]): 13%
Activity (Mus musculus [2]): Non-toxic
Activity (Mus musculus [3]): Non-toxic

O=C(NC1CCC2(CC1)NC(=O)N(CCOc1ccc(F)cc1)C2=O)c1cccc(F)c1 (stereo not given)
Activity (Mus musculus [1]): 58.02%
Activity (Mus musculus [2]): Toxic
Activity (Mus musculus [3]): Toxic

CCc1ccc(S(=O)(=O)NC2CCC3(CC2)NC(=O)N(CCOc2ccc(F)cc2)C3=O)cc1 (stereo not given)
Activity (Mus musculus [1]): 1.23%
Activity (Mus musculus [2]): Non-toxic
Activity (Mus musculus [3]): Non-toxic

O=C(NC1CCC2(CC1)NC(=O)N(CCOc1ccc(F)cc1)C2=O)c1ccc(F)cc1 (stereo not given)
Activity (Mus musculus [1]): 57.94%
Activity (Mus musculus [2]): Toxic
Activity (Mus musculus [3]): Toxic

O=C(NC1CCC2(CC1)NC(=O)N(CCOc1ccc(F)cc1)C2=O)Oc1ccc(Cl)cc1 (stereo not given)
Activity (Mus musculus [1]): 59.29%
Activity (Mus musculus [2]): Non-toxic
Activity (Mus musculus [3]): Non-toxic

O=C1NC2(CCC(NS(=O)(=O)c3cccc(F)c3)CC2)C(=O)N1CCOc1ccc(F)cc1 (stereo not given)
Activity (Mus musculus [1]): 6.5%
Activity (Mus musculus [2]): Non-toxic
Activity (Mus musculus [3]): Non-toxic

Cc1cccc(S(=O)(=O)NC2CCC3(CC2)NC(=O)N(CCOc2ccc(F)cc2)C3=O)c1 (stereo not given)
Activity (Mus musculus [1]): 4.55%
Activity (Mus musculus [2]): Non-toxic
Activity (Mus musculus [3]): Non-toxic

O=C1NC2(CCC(NS(=O)(=O)c3cccc(Cl)c3)CC2)C(=O)N1CCOc1ccc(F)cc1 (stereo not given)
Activity (Mus musculus [1]): 4.55%
Activity (Mus musculus [2]): Toxic
Activity (Mus musculus [3]): Toxic

O=C(NC1CCC2(CC1)NC(=O)N(CCOc1ccc(F)cc1)C2=O)c1ccccc1F (stereo not given)
Activity (Mus musculus [1]): 48.12%
Activity (Mus musculus [2]): Toxic
Activity (Mus musculus [3]): Toxic

O=C(NC1CCC2(CC1)NC(=O)N(CCOc1ccc(F)cc1)C2=O)Oc1ccccc1 (stereo not given)
Activity (Mus musculus [1]): 56.89%
Activity (Mus musculus [2]): Non-toxic
Activity (Mus musculus [3]): Non-toxic

Cc1ccc(C)c(S(=O)(=O)NC2CCC3(CC2)NC(=O)N(CCOc2ccc(F)cc2)C3=O)c1 (stereo not given)
Activity (Mus musculus [1]): 43.95%
Activity (Mus musculus [2]): Non-toxic
Activity (Mus musculus [3]): Non-toxic

N#Cc1ccccc1S(=O)(=O)NC1CCC2(CC1)NC(=O)N(CCOc1ccc(F)cc1)C2=O (stereo not given)
Activity (Mus musculus [1]): 4.51%
Activity (Mus musculus [2]): Non-toxic
Activity (Mus musculus [3]): Non-toxic

O=C(NC1CCC2(CC1)NC(=O)N(CCOc1ccc(F)cc1)C2=O)c1ccccc1Cl (stereo not given)
Activity (Mus musculus [1]): 49.41%
Activity (Mus musculus [2]): Non-toxic
Activity (Mus musculus [3]): Non-toxic

CC(C)(C)c1ccc(C(=O)NC2CCC3(CC2)NC(=O)N(CCOc2ccc(F)cc2)C3=O)cc1 (stereo not given)
Activity (Mus musculus [1]): 48.15%
Activity (Mus musculus [2]): Non-toxic
Activity (Mus musculus [3]): Non-toxic

O=C1NC2(CCC(NS(=O)(=O)c3ccccc3F)CC2)C(=O)N1CCOc1ccc(F)cc1 (stereo not given)
Activity (Mus musculus [1]): 4.94%
Activity (Mus musculus [2]): Non-toxic
Activity (Mus musculus [3]): Non-toxic
